In paper PMC5706701, “Development of a homogenous high-throughput assay for inositol hexakisphosphate kinase 1 activity” (PLoS ONE, 2017):
Counter-ions that a name gives are not always drawn.

Target: T1, Human IP6K1 (Homo sapiens, UniProt Q92551)
T1 construct: GST (N, cleaved yes); made in house; host or cells: C43 E. coli, pGEX-6P-2
Test: IP6K1 high-throughput screen of the Sigma LOPAC (ADP-Glo Max, single point);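 further: final compound concentration 10µM in 5% DMSO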
Format: biochemical

[1] = LOPAC single-point screen, ADP-Glo Max luminescence raw signal per well
[2] = LOPAC single-point screen, Z-score relative to plate average and StDev
[3] = LOPAC single-point screen, ADP-Glo Max raw signal per well
[4] = LOPAC single-point screen, Z-score against plate average and StDev
[5] = LOPAC single-point screen, Z-score from raw signal with plate average and StDev
[6] = Sigma LOPAC single-point screen, ADP-Glo Max raw signal per well
[7] = Sigma LOPAC single-point screen, Z-score from plate average and StDev
[8] = LOPAC single-point screen, Z-score from plate average and StDev

T1 sequence (Q92551 whole entry): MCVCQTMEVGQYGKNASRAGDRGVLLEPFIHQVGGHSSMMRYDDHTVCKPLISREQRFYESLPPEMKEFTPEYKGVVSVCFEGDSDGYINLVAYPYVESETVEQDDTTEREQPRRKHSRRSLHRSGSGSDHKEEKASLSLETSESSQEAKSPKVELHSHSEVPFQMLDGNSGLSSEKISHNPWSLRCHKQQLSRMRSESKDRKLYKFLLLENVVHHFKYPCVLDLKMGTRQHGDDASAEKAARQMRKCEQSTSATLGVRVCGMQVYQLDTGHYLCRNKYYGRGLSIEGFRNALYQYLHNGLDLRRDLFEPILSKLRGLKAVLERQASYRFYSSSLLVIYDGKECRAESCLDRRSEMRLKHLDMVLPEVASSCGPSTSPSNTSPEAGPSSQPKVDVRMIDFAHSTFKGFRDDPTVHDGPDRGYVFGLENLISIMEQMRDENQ

## Br.Br.N=C(N)SCCc1ccc(CCSC(=N)N)cc1 [1,4-PBIT dihydrobromide]
[1]
  Raw Signal: 52088
[2]
  Z-score: -0.7647

## Oc1cccc2c(O)nccc12 [1,5-Isoquinolinediol]
[3]
  Raw Signal: 54537
[4]
  Z-score: 0.02411

## Cn1c(=O)[nH]c2ncn(C)c2c1=O [1,7-Dimethylxanthine]
[3]
  Raw Signal: 53863
[5]
  Z-score: -0.2648

## NCCCCCCCCCCN [1,10-Diaminodecane]
[5]
  Z-score: -0.1121

## O.c1cnc2c(c1)ccc1cccnc12 [1,10-Phenanthroline monohydrate]
[1]
  Raw Signal: 52659
[2]
  Z-score: -0.6537

## Cl.c1ccc2c(N3CCNCC3)cccc2c1 [1-(1-Naphthyl)piperazine hydrochloride]
[3]
  Raw Signal: 55645
[4]
  Z-score: -0.07359

## Oc1ccc(Cn2cc[nH]c2=S)cc1 [1-(4-Hydroxybenzyl)imidazole-2-thiol]
[1]
  Raw Signal: 52381
[2]
  Z-score: -0.5658

## Nn1nnc2ccccc21 [1-Aminobenzotriazole]
[1]
  Raw Signal: 53212
[2]
  Z-score: -0.828

## OC[C@H]1NC[C@H](O)[C@@H](O)[C@@H]1O [1-Deoxynojirimycin hydrochloride]
[6]
  Raw Signal: 59013
[7]
  Z-score: 0.7811

## Cl.Cl.Cn1cnc(CCN)c1 [1-Methylhistamine dihydrochloride]
[3]
  Raw Signal: 52776
[5]
  Z-score: -0.2718

## Cn1ccnc1 [1-Methylimidazole]
[6]
  Raw Signal: 56921
[7]
  Z-score: 0.4247

## S=C(Nc1ccccc1)Nc1nccs1 [1-Phenyl-3-(2-thiazolyl)-2-thiourea]
[3]
  Raw Signal: 53752
[5]
  Z-score: -0.1078

## N=C(N)NC(=N)Nc1ccccc1 [1-Phenylbiguanide]
[1]
  Raw Signal: 52325
[2]
  Z-score: -0.7186

## FC(F)(F)c1ccccc1-n1ccnc1 [1-[2-(Trifluoromethyl)phenyl]imidazole]
[6]
  Raw Signal: 60208
[7]
  Z-score: 0.8129

## Cc1cn([C@H]2C=C[C@@H](CO)O2)c(=O)[nH]c1=O [2 ,3 -didehydro-3 -deoxythymidine]
[3]
  Raw Signal: 54462
[5]
  Z-score: -0.1432

## Nc1ccn([C@H]2CC[C@@H](CO)O2)c(=O)n1 [2 ,3 -dideoxycytidine]
[1]
  Raw Signal: 50390
[2]
  Z-score: -0.9702

## c1ccc(-c2ccccn2)nc1 [2,2 -Bipyridyl]
[3]
  Raw Signal: 56711
[4]
  Z-score: 0.3136

## CC(=O)C(C)=NO [2,3-Butanedione monoxime]
[1]
  Raw Signal: 66346
[8]
  Z-score: 1.485

## CC(=O)C(C)=O [2,3-Butanedione]
[3]
  Raw Signal: 53441
[5]
  Z-score: -0.3505

## COC1=C(OC)C(=O)c2ccccc2C1=O [2,3-Dimethoxy-1,4-naphthoquinone]
[6]
  Raw Signal: 57485
[7]
  Z-score: 0.4708

## Nc1cc(=O)[nH]c(N)n1 [2,6-Diamino-4-pyrimidinone]
[6]
  Raw Signal: 57244
[7]
  Z-score: 0.4218

## O=C[C@H](Cl)[C@@H](O)[C@H](O)[C@H](O)CO [2-Chloro-2-deoxy-D-glucose]
[6]
  Raw Signal: 57775
[7]
  Z-score: 0.5297

## Nc1nc(Cl)nc2c1ncn2C1OC(CO)C(O)C1O (stereo not drawn) [2-Chloroadenosine]
[3]
  Raw Signal: 58125
[4]
  Z-score: 0.03732

## NCC(O)(CS(=O)(=O)O)c1ccc(Cl)cc1 (stereo not drawn) [2-Hydroxysaclofen]
[6]
  Raw Signal: 61124
[7]
  Z-score: 0.5655

## COc1ccc2[nH]c(I)c(CCNC(C)=O)c2c1 [2-Iodomelatonin]
[3]
  Raw Signal: 55940
[4]
  Z-score: 0.157

## Cc1[nH]c2ccc(O)cc2c1CCN.O=C(O)/C=C\C(=O)O [2-Methyl-5-hydroxytryptamine maleate]
[3]
  Raw Signal: 56336
[4]
  Z-score: 0.3264

## Nc1nc(Nc2ccccc2)nc2c1ncn2[C@@H]1O[C@H](CO)[C@@H](O)[C@H]1O [2-Phenylaminoadenosine]
[3]
  Raw Signal: 55292
[5]
  Z-score: -0.1422

## COc1cc2c(cc1O)CC[C@@H]1[C@@H]2CC[C@]2(C)[C@@H](O)CC[C@@H]12 [2-methoxyestradiol]
[6]
  Raw Signal: 58620
[7]
  Z-score: 0.7102

## N/C(=N\C(=O)c1nc(Cl)c(N)nc1N)NCc1ccc(Cl)c(Cl)c1 [3 ,4 -Dichlorobenzamil]
[3]
  Raw Signal: 56444
[4]
  Z-score: 0.2593

## Cc1cn([C@H]2C[C@H](N=[N+]=[N-])[C@@H](CO)O2)c(=O)[nH]c1=O [3 -Azido-3 -deoxythymidine]
[6]
  Raw Signal: 61635
[7]
  Z-score: 0.6555

## O=c1oc(Cl)c(Cl)c2ccccc12 [3,4-Dichloroisocoumarin]
[1]
  Raw Signal: 52609
[2]
  Z-score: -0.5195

## O=C(O)Cc1ccc(O)c(O)c1 [3,4-Dihydroxyphenylacetic acid]
[6]
  Raw Signal: 57060
[7]
  Z-score: 0.3844

## O=[N+]([O-])c1cc(O)c(O)c([N+](=O)[O-])c1 [3,5-Dinitrocatechol]
[3]
  Raw Signal: 56696
[4]
  Z-score: 0.3105

## C#CCn1c(=O)c2c(ncn2C)n(C)c1=O [3,7-Dimethyl-I-propargylxanthine]
[1]
  Raw Signal: 50513
[2]
  Z-score: -0.9452

## NCCCS(=O)(=O)O.[Na] [3-Amino-1-propanesulfonic acid sodium]
[1]
  Raw Signal: 52858
[2]
  Z-score: -0.8903

## N#CCCN.N#CCCN.O=C(O)/C=C/C(=O)O [3-Aminopropionitrile fumarate]
[1]
  Raw Signal: 53618
[2]
  Z-score: -0.7565

## NCCCP(=O)(O)O [3-Aminopropylphosphonic acid]
[3]
  Raw Signal: 56234
[5]
  Z-score: -0.2957

## O=[N+]([O-])c1cccc2c(Br)n[nH]c12 [3-Bromo-7-nitroindazole]
[1]
  Raw Signal: 68484
[8]
  Z-score: 1.862

## NNCc1cccc(O)c1 [3-Hydroxybenzylhydrazine dihydrochloride]
[3]
  Raw Signal: 53590
[5]
  Z-score: -0.3203

## N[C@@H](Cc1ccc(O)c(I)c1)C(=O)O [3-Iodo-L-tyrosine]
[1]
  Raw Signal: 50230
[2]
  Z-score: -0.6996

## CC(C)Cn1c(=O)n(C)c(=O)c2[nH]cnc21 [3-Isobutyl-1-methylxanthine]
[6]
  Raw Signal: 62159
[7]
  Z-score: 1.305

## COc1ccc2c(c1)[C@@]13CCCC[C@H]1[C@@H](C2)NCC3.Cl [3-Methoxy-morphanin hydrochloride]
[3]
  Raw Signal: 54071
[4]
  Z-score: -0.05419

## Nc1c[n+](N2CCOCC2)no1.[Cl-] [3-Morpholinosydnonimine hydrochloride]
[3]
  Raw Signal: 53200
[5]
  Z-score: -0.2005

## O=C(O)CC[N+](=O)[O-] [3-Nitropropionic acid]
[3]
  Raw Signal: 53138
[5]
  Z-score: -0.211

## Cl.NCC#Cc1ccccc1 [3-Phenylpropargylamine hydrochloride]
[1]
  Raw Signal: 53264
[2]
  Z-score: -0.5362

## CN1[C@@H]2CC[C@H]1C[C@@H](OC(=O)c1cc(Cl)cc(Cl)c1)C2 [3-Tropanyl-3,5-dichlorobenzoate]
[3]
  Raw Signal: 53877
[5]
  Z-score: -0.4171

## NC(=O)c1cccc(N)c1 [3-aminobenzamide]
[3]
  Raw Signal: 56496
[5]
  Z-score: -0.2496

## Nc1nccc2c1ncn2[C@@H]1O[C@H](CO)[C@@H](O)[C@H]1O [3-deazaadenosine]
[1]
  Raw Signal: 51727
[2]
  Z-score: -0.6986

## CCCn1c(=O)[nH]c(=O)c2nc[nH]c21 [3-n-Propylxanthine]
[6]
  Raw Signal: 57454
[7]
  Z-score: 0.5142

## Nc1ccc2c3c(cccc13)C(=O)NC2=O [4-Amino-1,8-naphthalimide]
[1]
  Raw Signal: 55002
[2]
  Z-score: -0.5127

## N=C(N)c1ccc(N)cc1 [4-Aminobenzamidine dihydrochloride]
[1]
  Raw Signal: 52991
[2]
  Z-score: -0.8669

## Nc1ccncc1 [4-Aminopyridine]
[3]
  Raw Signal: 56638
[5]
  Z-score: -0.2246

## C[C@]12CCC(=O)C(O)=C1CC[C@@H]1[C@@H]2CC[C@]2(C)C(=O)CC[C@@H]12 [4-Androsten-4-ol-3,17-dione]
[1]
  Raw Signal: 53811
[2]
  Z-score: -0.7225

## C[C@]12CCC(=O)C=C1CC[C@@H]1[C@@H]2CC[C@]2(C)C(=O)CC[C@@H]12 [4-Androstene-3,17-dione]
[3]
  Raw Signal: 58885
[4]
  Z-score: 0.1712

## O=C(O)c1cc[c]([Hg][Cl])cc1 [4-Chloromercuribenzoic acid]
[3]
  Raw Signal: 56908
[5]
  Z-score: -0.177

## C[N+]1(C)CCC(OC(=O)C(c2ccccc2)c2ccccc2)CC1.[I-] [4-DAMP methiodide]
[1]
  Raw Signal: 63096
[8]
  Z-score: 1.6103

## COc1cc(CC(=O)O)ccc1O [4-Hydroxy-3-methoxyphenylacetic acid]
[6]
  Raw Signal: 58602
[7]
  Z-score: 0.6976

## NNC(=O)c1ccc(O)cc1 [4-Hydroxybenzhydrazide]
[6]
  Raw Signal: 59100
[7]
  Z-score: 0.7987

## Cl.NCCc1ccc(O)cc1 [4-Hydroxyphenethylamine hydrochloride]
[3]
  Raw Signal: 54724
[5]
  Z-score: -0.2525

## O=C(O)C=Cc1c[nH]cn1 [4-Imidazoleacrylic acid]
[3]
  Raw Signal: 54766
[5]
  Z-score: -0.2444

## Cl.OCc1c[nH]cn1 [4-Imidazolemethanol hydrochloride]
[3]
  Raw Signal: 56297
[4]
  Z-score: 0.2295

## Cc1cn[nH]c1.Cl [4-Methylpyrazole hydrochloride]
[1]
  Raw Signal: 63526
[8]
  Z-score: 1.5345

## N#Cc1c(-c2ccccc2)no[n+]1[O-] [4-Phenyl-3-furoxancarbonitrile]
[3]
  Raw Signal: 53966
[4]
  Z-score: -0.07183

## Nc1ncnc2c1ncn2[C@@H]1O[C@H](C(=O)NC2CC2)[C@@H](O)[C@H]1O [5 -(N-Cyclopropyl)carboxamidoadenosine]
[3]
  Raw Signal: 57761
[4]
  Z-score: -0.02679

## CCNC(=O)[C@H]1O[C@@H](n2cnc3c(N)ncnc32)[C@H](O)[C@@H]1O [5 -N-Ethylcarboxamidoadenosine]
[3]
  Raw Signal: 52988
[5]
  Z-score: -0.4425
